The values that follow come from patent US12435092B2, “Substituted imidazo[1,2-A]quinazolines as inhibitors of PARG” (858 Therapeutics, Inc., priority 2022, dated 2025).

pIC50: −log10 of the molar value.

T1 sequence (Q86W56 whole entry): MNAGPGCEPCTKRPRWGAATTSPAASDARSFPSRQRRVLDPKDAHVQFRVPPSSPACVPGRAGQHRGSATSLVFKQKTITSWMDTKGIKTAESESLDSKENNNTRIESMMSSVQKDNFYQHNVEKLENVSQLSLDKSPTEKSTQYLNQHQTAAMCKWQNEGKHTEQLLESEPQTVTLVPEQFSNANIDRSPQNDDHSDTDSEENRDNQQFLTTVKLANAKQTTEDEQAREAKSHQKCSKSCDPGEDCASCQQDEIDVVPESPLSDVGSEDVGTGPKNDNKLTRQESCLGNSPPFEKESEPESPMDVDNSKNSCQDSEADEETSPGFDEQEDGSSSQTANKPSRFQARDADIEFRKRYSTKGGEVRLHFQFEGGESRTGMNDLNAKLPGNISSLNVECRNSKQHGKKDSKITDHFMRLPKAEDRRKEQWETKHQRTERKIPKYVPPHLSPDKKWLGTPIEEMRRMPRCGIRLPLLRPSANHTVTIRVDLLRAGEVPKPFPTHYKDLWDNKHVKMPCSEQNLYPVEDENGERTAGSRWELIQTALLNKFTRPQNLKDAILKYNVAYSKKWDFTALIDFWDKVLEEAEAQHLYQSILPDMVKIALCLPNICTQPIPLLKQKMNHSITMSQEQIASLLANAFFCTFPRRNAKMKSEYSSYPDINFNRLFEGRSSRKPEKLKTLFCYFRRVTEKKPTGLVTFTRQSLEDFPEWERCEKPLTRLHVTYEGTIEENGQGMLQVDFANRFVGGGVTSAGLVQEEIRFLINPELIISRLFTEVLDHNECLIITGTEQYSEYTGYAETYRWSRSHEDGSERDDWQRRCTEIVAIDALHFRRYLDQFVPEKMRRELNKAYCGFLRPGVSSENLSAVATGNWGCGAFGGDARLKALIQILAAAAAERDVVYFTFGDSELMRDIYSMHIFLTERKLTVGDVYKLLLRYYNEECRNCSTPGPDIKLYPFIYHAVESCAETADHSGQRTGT

This experiment addresses T1, cellular PARG (Homo sapiens, UniProt Q86W56).
T1 construct: endogenous in cells; host or cells: HeLa
In words: Nuclear PAR accumulation assay (immunofluorescence high-content imaging). Format: cell-based. The following applies: HeLa cells, 1 hour compound treatment then MMS 50 μg/mL for an additional hour. Here is the method:
Compound IC50 values for inhibition of cellular PARG were determined using an immunofluorescence high-content imaging assay for nuclear PAR accumulation. HeLa cells were plated at 15,000 cells/well in a 96-well plate the day before compound treatment and then treated with varying concentrations of test compound and incubated for 1 hour at 37° C.+5% CO2. Following test compound treatment, methylmethane sulfonate (MMS) was added to a final concentration of 50 μg/mL and the cells were incubated for an additional hour. Following treatment, the cells were fixed with ice cold 95% methanol and the plates sealed and placed at −20° C. for 15 minutes. The cells were then washed once with phosphate buffered saline (PBS) and permeabilized with 0.1% Triton-X 100 for 20 minutes at room temperature. The cells were again washed once with PBS and incubated with an anti-poly-ADP ribose (PAR) monoclonal antibody (Millipore Part #AM80 clone 10H) diluted 1:1,000 in 5% fetal bovine serum +0.1% Tween-20+PBS overnight at 4° C. The cells were then washed three times with PBS before incubation with a fluorescently conjugated goat anti-mouse antibody (Invitrogen A32723) diluted 1:500 in 5% FBS+0.1% Tween-20+PBS for 1 hour at room temperature. The cells were again washed three times with PBS and the nuclei labeled by incubating with 1 μg/mL DAPI (4′,6-diamidino-2-phenylindole). Nuclear PAR accumulation was evaluated using high-content fluorescence microscopy. Four fields for each well were acquired at 20× magnification resulting in at least 1,000 cells analyzed per well. Using high-content software (CellReporterXpress) the nuclei were detected and segmented using the DAPI channel and the fluorescence intensity of the PAR-Alexa 488 channel was quantified within the nuclei regions. Both the average intensity per nucleus and percent PAR positive cells were quantified. Percent PAR positive cells were identified by having greater anti-PAR labeling above the threshold set with vehicle DMSO treated control cells. Percent inhibition of PARG by test compounds was calculated by normalizing the data to the 0.1% DMSO and reference compound control values, which represent 0% and 100% inhibition of enzymatic activity, respectively. Concentration-response-curves and IC50 values were generated using four parameter logistic curve fit software.
With `CCN1C(=O)c2cc(S(=O)(=O)NC3(C)CC3)ccc2N2C1=NC[C@@H]2C1CC1` [Example 25, (S)-1-cyclopropyl-4-ethyl-N-(1-methylcyclopropyl)-5-oxo-1,2,4,5-tetrahydroimidazo[1,2-a]quinazoline-7-sulfonamide], the pIC50 (usually the negative decadic logarithm of the IC50, by convention in mol/L) was less than 5.00.

`CCN1C(=O)c2cc(S(=O)(=O)NC3(C)CC3)ccc2N2C1=NC[C@H]2C1CC1` [Example 26, (R)-1-cyclopropyl-4-ethyl-N-(1-methylcyclopropyl)-5-oxo-1,2,4,5-tetrahydroimidazo[1,2-a]quinazoline-7-sulfonamide] gave a pIC50 of 6.00 to 7.00.

As for `C#C[C@H]1CN=C2N(CC)C(=O)c3cc(S(=O)(=O)NC4(C)CC4)ccc3N21` [Example 27, (S)-4-ethyl-1-ethynyl-N-(1-methylcyclopropyl)-5-oxo-1,2,4,5-tetrahydroimidazo[1,2-a]quinazoline-7-sulfonamide], the pIC50 was 5.00 to 6.00.

In the case of `C#C[C@@H]1CN=C2N(CC)C(=O)c3cc(S(=O)(=O)NC4(C)CC4)ccc3N21` [Example 28, (R)-4-ethyl-1-ethynyl-N-(1-methylcyclopropyl)-5-oxo-1,2,4,5-tetrahydroimidazo[1,2-a]quinazoline-7-sulfonamide], the pIC50 is 6.00 to 7.00.

`CC[C@H]1CN=C2N(Cc3cnc(C)s3)C(=O)c3cc(S(=O)(=O)NC4(C)CC4)ccc3N21` [Example 29, (S)-1-ethyl-N-(1-methylcyclopropyl)-4-((2-methylthiazol-5-yl)methyl)-5-oxo-1,2,4,5-tetrahydroimidazo[1,2-a]quinazoline-7-sulfonamide] showed a pIC50 of 5.00 to 6.00.

Turning to `CC[C@@H]1CN=C2N(Cc3cnc(C)s3)C(=O)c3cc(S(=O)(=O)NC4(C)CC4)ccc3N21` [Example 30, (R)-1-ethyl-N-(1-methylcyclopropyl)-4-((2-methylthiazol-5-yl)methyl)-5-oxo-1,2,4,5-tetrahydroimidazo[1,2-a]quinazoline-7-sulfonamide], the pIC50 is no less than 7.00.

Take `Cc1ncc(CN2C(=O)c3cc(S(=O)(=O)NC4(C)CC4)ccc3N3C2=NC[C@H]3C)s1` [Example 31, (R)-1-methyl-N-(1-methylcyclopropyl)-4-((2-methylthiazol-5-yl)methyl)-5-oxo-1,2,4,5-tetrahydroimidazo[1,2-a]quinazoline-7-sulfonamide]: the pIC50 is no less than 7.00.

Consider `Cc1cc(CN2C(=O)c3cc(S(=O)(=O)NC4(C)CC4)ccc3N3C2=NC[C@H]3C)on1` [Example 32, (R)-1-methyl-N-(1-methylcyclopropyl)-4-((3-methylisoxazol-5-yl)methyl)-5-oxo-1,2,4,5-tetrahydroimidazo[1,2-a]quinazoline-7-sulfonamide], for which the pIC50 was no less than 7.00.

As to `C#C[C@H]1CN=C2N(Cc3cnn(C)c3)C(=O)c3cc(S(=O)(=O)NC4(C)CC4)ccc3N21` [Example 33, (S)-1-ethynyl-4-((1-methyl-1H-pyrazol-4-yl)methyl)-N-(1-methylcyclopropyl)-5-oxo-1,2,4,5-tetrahydroimidazo[1,2-a]quinazoline-7-sulfonamide], the pIC50 is 6.00 to 7.00.

On to `C#C[C@@H]1CN=C2N(Cc3cnn(C)c3)C(=O)c3cc(S(=O)(=O)NC4(C)CC4)ccc3N21` [Example 34, (R)-1-ethynyl-4-((1-methyl-1H-pyrazol-4-yl)methyl)-N-(1-methylcyclopropyl)-5-oxo-1,2,4,5-tetrahydroimidazo[1,2-a]quinazoline-7-sulfonamide], for which the pIC50 is no less than 7.00.

With `Cn1cc(CN2C(=O)c3cc(S(=O)(=O)NC4(C)CC4)ccc3N3C2=NC[C@H]3C2CC2)cn1` [Example 35, (R)-1-cyclopropyl-4-((1-methyl-1H-pyrazol-4-yl)methyl)-N-(1-methylcyclopropyl)-5-oxo-1,2,4,5-tetrahydroimidazo[1,2-a]quinazoline-7-sulfonamide], the negative-log IC50 (pIC50) was no less than 7.00.

Compound `Cn1cc(CN2C(=O)c3cc(S(=O)(=O)NC4(C)CC4)ccc3N3C2=NC[C@@H]3C2CC2)cn1` [Example 36, (S)-1-cyclopropyl-4-((1-methyl-1H-pyrazol-4-yl)methyl)-N-(1-methylcyclopropyl)-5-oxo-1,2,4,5-tetrahydroimidazo[1,2-a]quinazoline-7-sulfonamide] showed a negative-log IC50 (pIC50) of 6.00 to 7.00.

For `CCN1C(=O)c2cc(S(=O)(=O)NC3(C)CC3)ccc2N2C1=NC[C@@H]2C(C)C` [Example 37, (S)-4-ethyl-1-isopropyl-N-(1-methylcyclopropyl)-5-oxo-1,2,4,5-tetrahydroimidazo[1,2-a]quinazoline-7-sulfonamide], the pIC50 was less than 5.00.

The compound `CCN1C(=O)c2cc(S(=O)(=O)NC3(C)CC3)ccc2N2C1=NC[C@H]2C(C)C` [Example 38, (R)-4-ethyl-1-isopropyl-N-(1-methylcyclopropyl)-5-oxo-1,2,4,5-tetrahydroimidazo[1,2-a]quinazoline-7-sulfonamide] showed a pIC50 of 6.00 to 7.00.

`CC(C)[C@H]1CN=C2N(Cc3cnn(C)c3)C(=O)c3cc(S(=O)(=O)NC4(C)CC4)ccc3N21` [Example 39, (S)-1-isopropyl-4-((1-methyl-1H-pyrazol-4-yl)methyl)-N-(1-methylcyclopropyl)-5-oxo-1,2,4,5-tetrahydroimidazo[1,2-a]quinazoline-7-sulfonamide]: the pIC50 was 5.00 to 6.00.

The compound `CC(C)[C@@H]1CN=C2N(Cc3cnn(C)c3)C(=O)c3cc(S(=O)(=O)NC4(C)CC4)ccc3N21` [Example 40, (R)-1-isopropyl-4-((1-methyl-1H-pyrazol-4-yl)methyl)-N-(1-methylcyclopropyl)-5-oxo-1,2,4,5-tetrahydroimidazo[1,2-a]quinazoline-7-sulfonamide] gave a pIC50 of no less than 7.00.

`CC[C@H]1CN=C2N(CC)C(=O)c3cc(S(=O)(=O)NC4(C)CC4)ccc3N21` [Example 41, (S)-1,4-diethyl-N-(1-methylcyclopropyl)-5-oxo-1,2,4,5-tetrahydroimidazo[1,2-a]quinazoline-7-sulfonamide]: the pIC50 is less than 5.00.

In the case of `CC[C@@H]1CN=C2N(CC)C(=O)c3cc(S(=O)(=O)NC4(C)CC4)ccc3N21` [Example 42, (R)-1,4-diethyl-N-(1-methylcyclopropyl)-5-oxo-1,2,4,5-tetrahydroimidazo[1,2-a]quinazoline-7-sulfonamide], the pIC50 was 6.00 to 7.00.

Take `C#CC1CN=C2N(C)C(=O)c3cc(S(=O)(=O)NC4(C)CC4)ccc3N21` (stereo not drawn) [Example 43, 1-ethynyl-4-methyl-N-(1-methylcyclopropyl)-5-oxo-1,2,4,5-tetrahydroimidazo[1,2-a]quinazoline-7-sulfonamide]: the pIC50 was 6.00 to 7.00.

`CC[C@H]1CN=C2N(Cc3cnn(C)c3)C(=O)c3cc(S(=O)(=O)NC4(C)CC4)ccc3N21` [Example 44, (S)-1-ethyl-4-((1-methyl-1H-pyrazol-4-yl)methyl)-N-(1-methylcyclopropyl)-5-oxo-1,2,4,5-tetrahydroimidazo[1,2-a]quinazoline-7-sulfonamide]: the pIC50 is 6.00 to 7.00.

As to `CC[C@@H]1CN=C2N(Cc3cnn(C)c3)C(=O)c3cc(S(=O)(=O)NC4(C)CC4)ccc3N21` [Example 45, (R)-1-ethyl-4-((1-methyl-1H-pyrazol-4-yl)methyl)-N-(1-methylcyclopropyl)-5-oxo-1,2,4,5-tetrahydroimidazo[1,2-a]quinazoline-7-sulfonamide], the negative logarithm of the IC50 (pIC50) is no less than 7.00.
